How the values were obtained:
[1] = system: immature rats; assay: Uterotrophic and antiuterotrophic actions in immature rat assay (uterine weight); format: in vivo; details: for suppression of estradiol's activity (uterotrophic action): with 17b-estradiol
Method: The uterotrophic and antiuterotrophic actions of CHF 3316.01 were studied to determine the estrogenic and antiestrogenic activity of CHF 3316.01 in immature rat assay. All experiments were conducted using subcutaneous injection of the test compound as a solution in 20% Solutol HS 15. Each experiment was accompained by a vehicle control group and a positive control group (17b-estradiol 2 mg/kg by subcutaneous injection). The test protocol was based on the immature rat assay protocol described by […]. and […] Endocr (1978), 99, 445-464. Animals were dosed on 3 successive days with the appropriate material. Animals were killed by an overdose of CO2 24 hr after the final dose. The body of the uterus was cut just above its junction with the cervix and at the junction of the uterine horns with the ovaries. The uterus was then weighed. Generally, 6 animals per exposure group were employed. The daily dose levels used for CHF 3316.01 were 10 and 20 mg/kg.

[2] = molecular target: T1, estrogen receptors (Bos taurus, UniProt P49884); assay: biochemical
T1 sequence (P49884 1-596): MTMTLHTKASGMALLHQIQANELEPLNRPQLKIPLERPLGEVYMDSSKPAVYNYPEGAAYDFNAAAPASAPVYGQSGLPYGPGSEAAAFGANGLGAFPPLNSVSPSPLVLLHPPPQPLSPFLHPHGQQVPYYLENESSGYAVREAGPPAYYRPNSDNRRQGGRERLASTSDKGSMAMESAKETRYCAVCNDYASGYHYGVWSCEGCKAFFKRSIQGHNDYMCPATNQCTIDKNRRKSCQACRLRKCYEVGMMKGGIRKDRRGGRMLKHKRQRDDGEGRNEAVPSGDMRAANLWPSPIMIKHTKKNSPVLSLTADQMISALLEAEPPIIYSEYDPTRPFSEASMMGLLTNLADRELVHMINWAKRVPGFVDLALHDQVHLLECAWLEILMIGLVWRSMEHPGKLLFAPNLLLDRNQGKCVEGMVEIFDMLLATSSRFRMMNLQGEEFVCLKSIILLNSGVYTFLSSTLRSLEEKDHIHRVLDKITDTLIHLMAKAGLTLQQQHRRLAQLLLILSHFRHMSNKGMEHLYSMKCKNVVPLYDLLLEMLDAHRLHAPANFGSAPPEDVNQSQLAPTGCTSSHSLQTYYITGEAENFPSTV
Method: To determine the estrogen receptor binding affinity of CHF 3316.01 calf uterus, prepared as previously described in McGuire W. L. et al. Eds. Estrogen receptors in human breast cancer, Raven Press N. Y., (1975), was used as source of estrogen receptors.
Displacement curves were generated using final concentrations of 1.5 nM 17b-[3H]estradiol as radioligand and (1)/(2) [formula] -log unit increments of CHF 3316.01, ranging from 0.1 to 10,000 nM.
Incubation time was 24 hr at 4°C, after which dextran-treated charcoal was added. The suspension was then centrifuged, and radioactivity in the supernatant fluid was determined by scintillation counting. Percent binding was determined in duplicate at each concentration of displacing ligand.
IC50 value for 50 % inhibition of 17b-[3H]estradiol binding and Ki value were determined by non linear regression analysis of log concentration-displacement curves.

[3] = system: fetal rat long bones (radius and ulna); assay: Bone resorption in fetal rat long bone culture (bPTH 1-34 induced 45Ca release); format: cell-based; details: 5 nM, day 5; n=7
Method: Pregnant Sprague-Dawley rats were injected subcutaneously with 0.2 mCi 45Ca (CaCl2, >10 Ci/g) on the 18th day of gestation (day of vaginal plug discovery equals day 0 of pregnancy).
To remove freely exchangeable 45Ca, bones were pre-incubated for 24 hours in 48-well polystyrene culture dishes (Costar, Cambridge, MA) containing 500 µl of a culture medium (BGJ-B medium) in an air humidified incubator at 37°C in 5% C02.
The medium was changed after 2 days.

[4] = system: fetal rat long bones (radius and ulna); assay: as above; details: for inhibition of 45Ca release induced by bPTH: bPTH 1-34 5 nM, 5 days culture
Method: To assess the in vitro activity of the compounds of the invention on bone resorption as a marker of a potential antiosteoporotic effect osteoclastic bone resorption was assayed using fetal rat long bones (radius and ulna) in stationary cultures, where resorption induced by bovine parathyroid hormone fragment 1-34 (bPTH 1-34) was measured by assaying the release from bones of previously incorporated 45Ca (DeLean A et al Am. J. Physiol., (1978), 225, E97-E102).
On the following day the animals were sacrificed, the fetuses removed and the radius and ulna aseptically excised and dissected free of surrounding soft tissues.
The experiment was terminated by washing the bones in 500 µl distilled water and extracting the residual radioactivity with 500 µl of 10% trichloroacetic acid (TCA).
bPTH 1-34 and disodium clodronate were dissolved in the culture medium.

## C[C@]12CC[C@@H]3c4ccc(O)cc4CC[C@H]3[C@@H]1CC[C@@H]2O [17b-estradiol, reference compound]
[1]; 2 mg/kg subcutaneous, three successive daily injections, immature rats
  increase of uterine weight above vehicle control group: 93%

## O=c1c(-c2ccc(O)cc2)coc2cc(O)ccc12 [Example M2, 4',7-dihydroxyisoflavone, reference compound]
[2]
  Ki: 127 nM

## bPTH 1-34: bovine parathyroid hormone fragment 1-34, used to induce resorption (AVSEIQFMHNLGKHLSSMERVEWLRKKLQDVHNF; Parathyroid hormone; UniProt P01268 32-65, looked up, fragment)
[3]
  45Ca release, treated over control (T/C) ratio: 4.27±0.33

## Cl.O=C(c1ccc(OCCN2CCCCC2)cc1)c1oc2cc(O)ccc2c(=O)c1-c1ccc(O)cc1 [CHF 3316.01, 4',7-dihydroxy-2-(4-(2-(N-piperidinyl)ethyloxy)benzoyl)isoflavone hydrochloride]
[1]; 10 mg/Kg per day subcutaneous, 3 days
  suppression of estradiol's activity (uterotrophic action): 63%
[1]; 20 mg/Kg per day subcutaneous, 3 days
  suppression of estradiol's activity (uterotrophic action): 78%
[1]; 10 and 20 mg/kg per day subcutaneous, 3 days
  uterotrophic activity: devoid of uterotrophic activity
[4]; 3 mM (so in the source)
  inhibition of 45Ca release induced by bPTH: 24.81±2.14%
[4]; 10 mM (so in the source)
  inhibition of 45Ca release induced by bPTH: 37.86%
[4]; 30 mM (so in the source)
  inhibition of 45Ca release induced by bPTH: full inhibition
[4]; Rattus norvegicus, read-out: apparent IC50 value
  IC50: 10000 nM
[4]; versus metabolite 3 of ipriflavone M3
  potency relative to M3 (more potent): ~2 fold
[2]
  Ki: 3.9 ± 0.3 nM

## O=P(O)(O)C(Cl)(Cl)P(=O)(O)O [Disodium clodronate, dichloromethylene bisphosphonate, reference compound]
[4]; Rattus norvegicus, 120 h, read-out: inhibition of resorption
  inhibition at 5 µM: 90 ± 5%
